ChEMBL document CHEMBL5131414, “Design, synthesis, and evaluation of phenylpiperazine-phenylacetate derivatives as rapid recovery hypnotic agents” (Bioorg Med Chem Lett, 2022)

How the values were obtained:
[1] = tested on: Mus musculus; experiment: Anesthetic activity in mouse assessed as concentration required to induce hypnotic effect; assay type: functional, organism-based
[2] = biological target: T1, 5-hydroxytryptamine receptor 1A (Homo sapiens) (UniProt P08908); experiment: Inhibition of 5-HT1A receptor (unknown origin) at 50 uM by radioligand receptor binding assay relative to control
T1 sequence (whole entry): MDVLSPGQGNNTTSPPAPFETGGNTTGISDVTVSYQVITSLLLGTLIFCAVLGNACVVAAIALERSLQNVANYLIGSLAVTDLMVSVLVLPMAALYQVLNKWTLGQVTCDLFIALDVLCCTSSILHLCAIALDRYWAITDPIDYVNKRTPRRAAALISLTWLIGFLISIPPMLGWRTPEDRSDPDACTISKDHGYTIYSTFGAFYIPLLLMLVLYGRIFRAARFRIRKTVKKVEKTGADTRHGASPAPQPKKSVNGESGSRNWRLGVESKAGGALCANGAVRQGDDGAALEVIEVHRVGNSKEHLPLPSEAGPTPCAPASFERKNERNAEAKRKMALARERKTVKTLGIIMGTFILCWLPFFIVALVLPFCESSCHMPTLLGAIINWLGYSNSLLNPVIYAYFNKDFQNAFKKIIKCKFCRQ

[3] = tested on: Rattus norvegicus; experiment: Anesthetic activity in rat assessed as concentration required to induce hypnotic effect; assay type: functional, organism-based
[4] = tested on: Rattus norvegicus; experiment: Anesthetic activity in rat assessed as onset time; assay type: functional
[5] = biological target: T2, Alpha-2A adrenergic receptor (Homo sapiens) (UniProt P08913); experiment: Inhibition of adrenergic alpha 2A receptor (unknown origin) at 50 uM by radioligand receptor binding assay relative to control
T2 sequence (whole entry): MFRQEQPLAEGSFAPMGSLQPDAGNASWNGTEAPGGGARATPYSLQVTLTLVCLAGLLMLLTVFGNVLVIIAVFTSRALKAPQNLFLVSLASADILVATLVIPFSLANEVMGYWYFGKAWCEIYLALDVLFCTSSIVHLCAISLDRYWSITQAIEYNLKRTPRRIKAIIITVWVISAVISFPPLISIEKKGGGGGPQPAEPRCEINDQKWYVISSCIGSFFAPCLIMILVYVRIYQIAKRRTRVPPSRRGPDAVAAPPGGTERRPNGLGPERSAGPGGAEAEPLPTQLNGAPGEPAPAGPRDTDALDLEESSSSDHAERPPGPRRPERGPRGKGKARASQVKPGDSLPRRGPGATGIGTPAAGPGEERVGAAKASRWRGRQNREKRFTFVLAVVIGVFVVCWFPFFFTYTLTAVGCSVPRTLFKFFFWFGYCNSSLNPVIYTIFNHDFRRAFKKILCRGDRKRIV

[6] = biological target: 5-hydroxytryptamine receptor 2A (Homo sapiens) (UniProt P28223); experiment: Inhibition of 5-HT2A receptor (unknown origin) at 50 uM by radioligand receptor binding assay relative to control
5-hydroxytryptamine receptor 2A (Homo sapiens), sequence (P28223 whole entry): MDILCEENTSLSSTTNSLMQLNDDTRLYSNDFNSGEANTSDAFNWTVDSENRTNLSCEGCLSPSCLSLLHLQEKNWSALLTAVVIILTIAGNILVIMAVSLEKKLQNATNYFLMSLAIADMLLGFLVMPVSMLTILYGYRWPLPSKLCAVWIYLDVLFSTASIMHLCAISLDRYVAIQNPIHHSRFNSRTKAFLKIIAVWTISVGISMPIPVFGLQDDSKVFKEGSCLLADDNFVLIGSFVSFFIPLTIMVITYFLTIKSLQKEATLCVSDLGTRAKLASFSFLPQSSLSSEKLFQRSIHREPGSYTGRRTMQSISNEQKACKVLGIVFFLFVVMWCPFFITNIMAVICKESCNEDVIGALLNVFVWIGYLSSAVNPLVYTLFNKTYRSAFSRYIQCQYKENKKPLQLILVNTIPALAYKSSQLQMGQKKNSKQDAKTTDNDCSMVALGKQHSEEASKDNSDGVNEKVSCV

[7] = biological target: GABA-A receptor; anion channel (Homo sapiens) (UniProt P14867+P47870+P18507+P28472+P48169+Q99928+Q9UN88+P34903+O00591+O14764+Q8N1C3+P18505+P78334+P47869+P31644+Q16445); experiment: Inhibition of GABAA receptor (unknown origin) at 50 uM by radioligand receptor binding assay relative to control; assay type: protein-complex assay
[8] = biological target: Sigma intracellular receptor 2 (Homo sapiens) (UniProt Q5BJF2); experiment: Inhibition of sigma 2 receptor (unknown origin) at 50 uM by radioligand receptor binding assay relative to control
Sigma intracellular receptor 2 (Homo sapiens), sequence (Q5BJF2 whole entry): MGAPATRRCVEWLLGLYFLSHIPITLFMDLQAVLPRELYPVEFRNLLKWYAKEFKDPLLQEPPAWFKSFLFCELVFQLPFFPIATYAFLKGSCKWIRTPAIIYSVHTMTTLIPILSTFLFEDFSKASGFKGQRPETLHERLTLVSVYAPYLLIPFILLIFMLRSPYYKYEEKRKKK

[9] = tested on: Oryctolagus cuniculus; experiment: Anesthetic activity in rabbit assessed as onset time; assay type: functional
[10] = tested on: Rattus norvegicus; experiment: Anesthetic activity in rat assessed as time duration of loss of righting reflex; assay type: functional
[11] = tested on: Rattus norvegicus; experiment: Anesthetic activity in rat assessed as time to walk at 2 times of HD50 concentration; assay type: functional
[12] = tested on: Oryctolagus cuniculus; experiment: Anesthetic activity in rabbit assessed as time duration of loss of righting reflex; assay type: functional
[13] = biological target: Sodium-dependent noradrenaline transporter (Homo sapiens) (UniProt P23975); experiment: Inhibition of Noradrenaline receptor (unknown origin) at 50 uM by radioligand receptor binding assay relative to control
Sodium-dependent noradrenaline transporter (Homo sapiens), sequence (P23975 whole entry): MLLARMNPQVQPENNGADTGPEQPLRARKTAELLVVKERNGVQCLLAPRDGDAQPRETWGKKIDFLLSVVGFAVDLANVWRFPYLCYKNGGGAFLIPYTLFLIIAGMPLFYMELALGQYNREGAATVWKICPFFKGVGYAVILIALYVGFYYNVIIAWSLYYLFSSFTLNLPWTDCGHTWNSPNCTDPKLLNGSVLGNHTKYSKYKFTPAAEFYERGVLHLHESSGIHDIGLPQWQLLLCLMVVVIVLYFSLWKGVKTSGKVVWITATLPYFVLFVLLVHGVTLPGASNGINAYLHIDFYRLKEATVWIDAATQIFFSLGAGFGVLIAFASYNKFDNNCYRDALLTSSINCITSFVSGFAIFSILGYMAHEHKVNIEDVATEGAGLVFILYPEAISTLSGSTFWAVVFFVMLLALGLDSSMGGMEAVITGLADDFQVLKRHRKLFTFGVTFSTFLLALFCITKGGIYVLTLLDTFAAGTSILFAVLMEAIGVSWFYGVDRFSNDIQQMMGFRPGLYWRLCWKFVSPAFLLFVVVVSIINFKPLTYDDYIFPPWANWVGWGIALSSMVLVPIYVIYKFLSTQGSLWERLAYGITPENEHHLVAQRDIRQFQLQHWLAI

[14] = Therapeutic index, ratio of LD50 for toxicity in mouse to HD50 for anesthetic activity in mouse; assay type: organism-based; conditions: in vivo, read-out: TI
[15] = Therapeutic index, ratio of LD50 for toxicity in rat to HD50 for anesthetic activity in rat; conditions: read-out: TI
[16] = Toxicity in rat assessed as lethal dose; conditions: in vivo
[17] = biological target: Cannabinoid receptor 2 (Homo sapiens) (UniProt P34972); experiment: Inhibition of CB2 receptor (unknown origin) at 50 uM by radioligand receptor binding assay relative to control
Cannabinoid receptor 2 (Homo sapiens), sequence (P34972 whole entry): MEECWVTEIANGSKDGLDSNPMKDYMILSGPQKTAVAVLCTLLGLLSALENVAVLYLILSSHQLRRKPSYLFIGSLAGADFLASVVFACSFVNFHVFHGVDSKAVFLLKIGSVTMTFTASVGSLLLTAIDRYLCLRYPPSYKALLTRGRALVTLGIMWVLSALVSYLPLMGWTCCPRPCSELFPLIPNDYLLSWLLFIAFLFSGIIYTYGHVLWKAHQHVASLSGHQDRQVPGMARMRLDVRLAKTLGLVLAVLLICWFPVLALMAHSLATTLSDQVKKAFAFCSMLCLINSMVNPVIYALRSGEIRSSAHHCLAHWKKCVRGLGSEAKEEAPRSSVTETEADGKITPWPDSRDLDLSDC

[18] = biological target: Glutamate [NMDA] receptor (Homo sapiens) (UniProt Q05586+Q12879+Q13224+O15399+O60391+Q14957+Q8TCU5); experiment: Inhibition of NMDA receptor (unknown origin) at 50 uM by radioligand receptor binding assay relative to control; assay type: protein-complex assay
[19] = tested on: Oryctolagus cuniculus; experiment: Anesthetic activity in rabbit assessed as concentration required to induce hypnotic effect; assay type: functional, organism-based
[20] = Therapeutic index, ratio of LD50 for toxicity in rabbit to HD50 for anesthetic activity in rabbit; conditions: read-out: TI
[21] = Toxicity in rabbit assessed as lethal dose; parameters: species or system Oryctolagus cuniculus; conditions: in vivo
[22] = tested on: Mus musculus; experiment: Anesthetic activity in mouse assessed as time to walk at 2 times of HD50 concentration; assay type: functional
[23] = tested on: Oryctolagus cuniculus; experiment: Anesthetic activity in rabbit assessed as time to walk at 2 times of HD50 concentration; assay type: functional
[24] = biological target: Cannabinoid receptor 1 (Homo sapiens) (UniProt P21554); experiment: Inhibition of CB1 receptor (unknown origin) at 50 uM by radioligand receptor binding assay relative to control
Cannabinoid receptor 1 (Homo sapiens), sequence (P21554 whole entry): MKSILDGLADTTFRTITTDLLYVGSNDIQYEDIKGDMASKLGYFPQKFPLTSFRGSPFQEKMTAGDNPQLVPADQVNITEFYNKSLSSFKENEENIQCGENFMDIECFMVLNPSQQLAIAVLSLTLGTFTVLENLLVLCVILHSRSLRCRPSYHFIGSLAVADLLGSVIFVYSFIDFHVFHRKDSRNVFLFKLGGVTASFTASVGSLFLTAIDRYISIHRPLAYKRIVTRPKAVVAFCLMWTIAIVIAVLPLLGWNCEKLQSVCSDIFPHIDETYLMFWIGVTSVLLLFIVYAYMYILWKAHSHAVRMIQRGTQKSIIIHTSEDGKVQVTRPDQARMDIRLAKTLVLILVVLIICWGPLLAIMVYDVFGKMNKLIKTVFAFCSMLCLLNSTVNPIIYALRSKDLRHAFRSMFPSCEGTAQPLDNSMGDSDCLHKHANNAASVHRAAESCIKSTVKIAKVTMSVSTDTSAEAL

[25] = biological target: D(3) dopamine receptor (Homo sapiens) (UniProt P35462); experiment: Inhibition of D3 receptor (unknown origin) at 50 uM by radioligand receptor binding assay relative to control
D(3) dopamine receptor (Homo sapiens), sequence (P35462 whole entry): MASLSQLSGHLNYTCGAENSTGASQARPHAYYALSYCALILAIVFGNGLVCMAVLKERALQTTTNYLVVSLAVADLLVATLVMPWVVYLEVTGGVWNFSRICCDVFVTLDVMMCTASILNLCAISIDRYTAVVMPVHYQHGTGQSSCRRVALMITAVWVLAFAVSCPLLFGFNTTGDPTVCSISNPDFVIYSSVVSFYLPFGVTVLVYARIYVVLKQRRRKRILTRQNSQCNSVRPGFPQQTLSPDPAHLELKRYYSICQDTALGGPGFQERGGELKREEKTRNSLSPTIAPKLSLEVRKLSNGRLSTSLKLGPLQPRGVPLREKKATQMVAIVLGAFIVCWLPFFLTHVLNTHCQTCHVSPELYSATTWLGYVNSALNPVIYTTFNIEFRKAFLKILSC

[26] = biological target: Sodium-dependent serotonin transporter (Homo sapiens) (UniProt P31645); experiment: Inhibition of 5-HT transporter (unknown origin) at 50 uM by radioligand receptor binding assay relative to control
Sodium-dependent serotonin transporter (Homo sapiens), sequence (P31645 whole entry, looked up): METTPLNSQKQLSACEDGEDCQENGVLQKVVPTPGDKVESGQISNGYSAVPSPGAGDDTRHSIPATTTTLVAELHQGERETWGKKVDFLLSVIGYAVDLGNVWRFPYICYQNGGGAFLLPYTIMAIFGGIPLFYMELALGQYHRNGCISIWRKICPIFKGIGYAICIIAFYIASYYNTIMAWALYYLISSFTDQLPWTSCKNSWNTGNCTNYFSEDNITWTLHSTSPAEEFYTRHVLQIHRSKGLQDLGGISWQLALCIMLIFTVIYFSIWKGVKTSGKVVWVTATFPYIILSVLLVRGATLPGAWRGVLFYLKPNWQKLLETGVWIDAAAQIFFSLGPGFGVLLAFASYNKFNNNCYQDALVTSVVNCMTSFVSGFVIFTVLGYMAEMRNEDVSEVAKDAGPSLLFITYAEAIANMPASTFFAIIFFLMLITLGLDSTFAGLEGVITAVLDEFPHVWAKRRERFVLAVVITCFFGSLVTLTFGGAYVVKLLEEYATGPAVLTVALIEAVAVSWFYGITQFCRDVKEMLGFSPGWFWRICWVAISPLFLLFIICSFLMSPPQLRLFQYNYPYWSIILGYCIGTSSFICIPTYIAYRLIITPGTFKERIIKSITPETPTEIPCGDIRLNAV

[27] = tested on: Mus musculus; experiment: Anesthetic activity in mouse assessed as onset time; assay type: functional
[28] = Lipophilicity, logP of the compound; assay type: physicochemical; conditions: octanol/water
[29] = tested on: Mus musculus; experiment: Anesthetic activity in mouse assessed as time duration of loss of righting reflex; assay type: functional
[30] = Toxicity in mouse assessed as lethal dose; conditions: in vivo
[31] = biological target: D(2) dopamine receptor (Homo sapiens) (UniProt P14416); experiment: Inhibition of D2 receptor (unknown origin) at 50 uM by radioligand receptor binding assay relative to control
D(2) dopamine receptor (Homo sapiens), sequence (P14416 whole entry): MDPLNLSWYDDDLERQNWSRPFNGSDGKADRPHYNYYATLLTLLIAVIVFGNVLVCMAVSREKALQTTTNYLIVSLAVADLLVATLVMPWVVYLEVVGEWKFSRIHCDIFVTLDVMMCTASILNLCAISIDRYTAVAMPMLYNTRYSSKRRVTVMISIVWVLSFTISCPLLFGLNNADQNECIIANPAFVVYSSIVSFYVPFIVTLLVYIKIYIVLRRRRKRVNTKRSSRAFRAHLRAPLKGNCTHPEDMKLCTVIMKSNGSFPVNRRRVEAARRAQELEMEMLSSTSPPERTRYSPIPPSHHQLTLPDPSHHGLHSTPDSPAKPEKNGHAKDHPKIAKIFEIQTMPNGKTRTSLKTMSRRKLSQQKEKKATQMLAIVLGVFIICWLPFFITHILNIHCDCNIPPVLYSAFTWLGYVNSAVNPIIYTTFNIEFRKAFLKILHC

[32] = biological target: Mu-type opioid receptor (Homo sapiens) (UniProt P35372); experiment: Inhibition of mu opioid receptor (unknown origin) at 50 uM by radioligand receptor binding assay relative to control
Mu-type opioid receptor (Homo sapiens), sequence (P35372 whole entry): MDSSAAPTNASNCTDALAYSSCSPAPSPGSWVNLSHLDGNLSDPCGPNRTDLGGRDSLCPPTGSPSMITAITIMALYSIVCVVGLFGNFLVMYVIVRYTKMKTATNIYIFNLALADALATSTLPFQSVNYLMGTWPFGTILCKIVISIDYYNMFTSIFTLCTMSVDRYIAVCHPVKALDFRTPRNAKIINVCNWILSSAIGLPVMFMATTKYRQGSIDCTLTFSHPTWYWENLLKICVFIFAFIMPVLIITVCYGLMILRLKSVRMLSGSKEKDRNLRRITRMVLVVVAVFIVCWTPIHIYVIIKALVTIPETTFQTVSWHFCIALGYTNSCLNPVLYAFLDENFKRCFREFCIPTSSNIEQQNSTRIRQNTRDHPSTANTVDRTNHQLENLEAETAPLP

[33] = biological target: Sigma non-opioid intracellular receptor 1 (Homo sapiens) (UniProt Q99720); experiment: Inhibition of sigma 1 receptor (unknown origin) at 50 uM by radioligand receptor binding assay relative to control
Sigma non-opioid intracellular receptor 1 (Homo sapiens), sequence (Q99720 whole entry): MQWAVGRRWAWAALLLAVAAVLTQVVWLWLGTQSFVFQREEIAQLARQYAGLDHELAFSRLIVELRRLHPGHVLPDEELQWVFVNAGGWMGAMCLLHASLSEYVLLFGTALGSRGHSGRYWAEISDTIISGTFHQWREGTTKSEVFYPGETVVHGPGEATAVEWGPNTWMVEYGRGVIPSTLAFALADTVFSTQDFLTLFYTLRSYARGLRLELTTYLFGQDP

CCCOC(=O)Cc1ccc(OCC(=O)N2CCN(c3ccccc3)CC2)c(OCC)c1
HD50 (median hypnotic dose) [1]: 25 mg/kg | inhibition [2]: 15.2% | EC50 [3]: 7.1 mg/kg | Time [4]: 9.6 s | inhibition [5]: 5.8% | inhibition [6]: 11.9% | inhibition [7]: 89.8% | inhibition [8]: 7.5% | Time [9]: 14.5 s | Time [10]: 92.4 s | Time [11]: 33.4 s | Time [12]: 292.9 s | inhibition [13]: 11.5% | selectivity ratio [14]: 8 | selectivity ratio [15]: 10.3 | LD50 [16]: 72.9 mg/kg | inhibition [17]: 12.6% | inhibition [18]: 4.3% | EC50 [19]: 5.2 mg/kg | selectivity ratio [20]: 18.1 | LD50 [21]: 93.9 mg/kg | Time [22]: 38.6 s | Time [23]: 81.7 s | inhibition [24]: 10.8% | inhibition [25]: 2.9% | inhibition [26]: 1.9% | Time [27]: 6.4 s | logP [28]: 3.6 | Time [29]: 83.3 s | LD50 [30]: 200 mg/kg | inhibition [31]: 1.2% | inhibition [32]: 4.6% | inhibition [33]: 9.1%
